One data set deals with T1, β1-35 peptide (Homo sapiens, UniProt P05067).
T1 construct: made in house; host or cells: chemical solid-phase synthesis (Fmoc)
Put plainly: β-amyloid protein aggregation inhibition by SDS-PAGE (Example 1). The settings on record: drug agent 100 µg/ml; β1-35 peptide 2 mg/ml; room temperature; control and methanol solutions aggregated by the 7th day. The class given is biochemical. An excerpt: When synthesized β-amyloid protein is subjected to SDS-PAGE, a 3-4 kDa band due to the peptide monomer is observed. However, when the protein begins to aggregate, this monomer band becomes thinner and a smear is observed at the high molecular end (Tomiyama, et al. 1994, J. Biol. Chem. 269, 10205-10208). The inhibitory activity of a drug agent against β-amyloid protein aggregation may be determined by measuring the aggregation period of β-amyloid in admixture with the drug agent based on the decrease in peptide monomer or appearance of smearing observed with SDS-PAGE.
Specifically, 10 µl of solution is taken from a reagent solution containing β-amyloid protein and a drug agent, an equivalent of a sample buffer for electrophoresis (20 mM Tris-HCl buffer, pH 6.8, 40% glycerin, 2% SDS, 2% β-mercaptoethanol) is added thereto, and the mixture is boiled at 100°C for 5 minutes. Next, 10 µl of the solution is placed on a 15-25% polyacrylamide gradient gel for electrophoresis in a Tris-glycine buffered system. After completion of the electrophoresis, the gel is stained with 0.2% Coomassie brilliant blue solution and the amount of peptide monomer (band thickness) and presence of smearing is observed. […]

The conditions of data set [1]: oral administration to rats; cited from earlier work.
The conditions of data set [2]: administered orally to patients at about 300-600 mg/day; cited from earlier work.

Results on three compounds are retold here after patent EP0675126A1, “AMYLOID BETA-PROTEIN AGGLUTINATION AND/OR DEPOSITION INHIBITOR” (TEIJIN LIMITED, priority 1993, dated 1995).

T1 sequence (P05067 672-706): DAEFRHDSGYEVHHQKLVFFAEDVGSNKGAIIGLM

As for `CO[C@H]1/C=C/O[C@@]2(C)Oc3c(C)c(O)c4c(O)c(cc(O)c4c3C2=O)NC(=O)/C(C)=C\C=C\[C@H](C)[C@H](O)[C@@H](C)[C@@H](O)[C@@H](C)[C@H](OC(C)=O)[C@@H]1C` [rifamycin SV, Rifamycin SV], the “reduction in peptide monomer and appearance of smear (β1-35 peptide aggregation)” value on β1-35 peptide was “no reduction in peptide monomer or smearing was observed up to the 14th day after dissolution”.
The same measure, in the same setting: as for `COC1C=COC2(C)Oc3c(C)c(O)c4c(O)c(cc(OCC(=O)O)c4c3C2=O)NC(=O)C(C)=CC=CC(C)C(O)C(C)C(O)C(C)C(OC(C)=O)C1C` (stereo not shown) [rifamycin B, Rifamycin B], the entry is “no reduction in peptide monomer or smearing was observed up to the 14th day after dissolution”.
For the compound `CO[C@H]1/C=C/O[C@@]2(C)Oc3c(C)c(O)c4c(O)c(c(/C=N/N5CCN(C)CC5)c(O)c4c3C2=O)NC(=O)/C(C)=C\C=C\[C@H](C)[C@H](O)[C@@H](C)[C@@H](O)[C@@H](C)[C@H](OC(C)=O)[C@@H]1C` [rifampicin, Rifampicin], in data set [1], the LD₅₀ value was 1720 mg/kg. In addition, the maximum blood concentration entry in data set [2] was “about 10 µg/ml”.
